Experimental findings from patent US9409864B2, “Sulfonamide TRPA1 receptor antagonists” (ARIO PHARMA LIMITED, priority 2013, dated 2016) are described below.

The structures appear in SMILES notation. Like-named read-outs stand apart in the source and are kept apart here.

Experiment [1] has as its target T1, native human TRPA1 receptors (Homo sapiens, UniProt O75762).
T1 construct: stably expressing native human TRPA1 receptors were used; endogenous in cells; host or cells: A549 human lung adenocarcinoma epithelial cell line
Description: PF-4840154 (1 μM)-induced Ca2+ fluorescence measurements in A549 cell line. It is filed as cell-based. In outline:
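A549 cells stably expressing native human TRPA1, Fluo-4 AM loaded; fluorescence Ca2+ read in HBSS with probenecid and Brilliant Black at 36.5 °C. Compounds tested alone for agonism and against 1 μM PF-4840154 for inhibition at initial 10 μM; IC50 from full concentration-response curves for selected compounds.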

The target in experiment [2] is T2, TRPA1 (cultured rat dorsal root ganglia neurons) (Rattus norvegicus, UniProt Q6RI86).
T2 construct: calcium assay data obtained in primary culture of rat dorsal ganglia neurons; from tissue; host or cells: primary culture of dorsal root ganglia neurons from male SD rats
Description: PF-4840154 (10 μM)-induced Ca2+ fluorescence measurements in cultured rat dorsal root ganglia neurons. It is filed as cell-based. The following applies: against 10 μM PF-4840154-induced [Ca2+]i mobilization, primary culture of rat dorsal ganglia neurons. How it is done:
PF-4840154 (10 μM)-Induced Ca^2+ Fluorescence Measurements in Cultured Rat Dorsal Root Ganglia Neurons
Male SD rats (˜50 g, Charles River, Italy) were terminally anaesthetized and decapitated. Dorsal root ganglia were removed and placed in cold Hank's balanced salt solution (HBSS) before being transferred to collagenase (2 mg/ml) and trypsin (1 mg/ml) for 35 min at 37° C. The ganglia, placed in cold DMEM supplemented with 10% fetal bovine serum, 10% horse serum, 2 mM L-glutamine, 100 U/ml penicillin and 100 μg/ml streptomycin, were dissociated in single cells by several passages through a series of syringe needles (23G down to 25G). The medium and the ganglia were filtered to remove debris, topped up with 4 ml of DMEM medium and centrifuged (1100 rpm for 6 min). The final cell pellet was re-suspended in DMEM medium [supplemented with 100 ng/ml mouse Nerve Growth Factor (mouse-NGF-7S) and cytosine-β-D-arabinofuranoside free base (ARA-C) 2.5 μM]. The cells were plated on poly-L-lysine (8.3 μM)- and laminin (5 μM)-coated 25 mm glass cover slips and kept for 2 days at 37° C. in a humidified incubator gassed with 5% CO2 and air, then treated with Fura-2-AM-ester (5 μM) in a Ca^2+ buffer solution having the following composition (mM): CaCl2 1.4, KCl 5.4, MgSO4 0.4, NaCl 135, D-glucose 5, HEPES 10 with BSA (0.1%), at pH 7.4, for 40 min at 37° C. The cells were then washed twice with the Ca^2+ buffer solution and transferred to a chamber on the stage of a Nikon eclipse TE300 microscope. Fura-2-AM-ester was excited at […] to indicate relative [Ca^2+]i changes by the F340/F380 ratio recorded with a dynamic image analysis system (Laboratory Automation 2.0, RCS, Florence, Italy) and the cells were allowed (at least 10 min) to attain a stable fluorescence before beginning the experiment. A calibration curve was set up using buffer containing Fura-2-AM-ester and determinant concentrations of free Ca^2+. This curve was then used to convert the data obtained from the F340/F380 ratio to [Ca^2+]i (nM).
All exemplified compounds were tested at the concentration of 10 μM against the calcium uptake induced by 10 μM PF-4840154. For selected examples, the entire concentration response curves were constructed and the respective IC50 value calculated.

In experiment [3] the test system is PF-4840154-induced mechanical hyperalgesia in rats. Nature of the experiment: Agonist (PF-4840154)-induced mechanical hyperalgesia in rats. It is filed as in vivo. The conditions noted are these: Rattus norvegicus, 30 μmol/kg oral, PF-4840154 0.05 nmol/50 μl/paw intraplantar. The text has this:
Agonist (PF-4840154)-Induced Mechanical Hyperalgesia in Rats
The method is used to investigate the anti-hyperalgesic effects of the compounds listed in the present invention following agonist (PF-4840154)-induced hyperalgesic responses. The activity is indicative of TRPA1 receptor occupancy following oral dosing. Specifically, male SD rats (Charles River, Italy) weighing 70-100 g. were used. The anti-hyperalgesic effects were investigated using the electronic dynamometer test. PF-4840154 (Sigma, USA) was used to induce mechanical hyperalgesia. Local, intraplantar injection of PF-4840154 at 0.05 nmol/50 μl/paw caused the reduction of the hind paw withdrawal response induced by mechanical stimuli. Mechanical stimulation was induced in basal condition and 30, 60, 120, 180 and 240 minutes after the oral administration of the antagonists dissolved in 2.5% DMSO and 30% Solutol. Compounds were orally administered (30 μmol/kg/10 ml) to rats 1 hour before the injection of PF-4840154 into the plantar surface of a rat's hind using a micro syringe.

Experiment [4] concerns oxaliplatin-induced mechanical hyperalgesia in rats. Description: Oxaliplatin-induced mechanical hyperalgesia in rats. The conditions noted are these: Rattus norvegicus, 168 h, 30 μmol/kg oral, 7 days post i.v. oxaliplatin 2.5 mg/kg. It is filed as in vivo. The method, then:
Oxaliplatin-Induced Mechanical Hyperalgesia in Rats
The method described by Nassini et al. (Pain, 2011, 152(7), 1621-31) was used with minor modifications. Restrained rats were treated with a single intravenous bolus injection of oxaliplatin (2.5 mg/kg) dissolved in normal saline. This approach was sufficient to elicit reproducible allodynic behaviour evident 3 days post injection and during the day thereafter. For convenience all acute experiments were conducted 7 days post injection when compounds were orally administered at 30 μmol/kg.

Setting [5] is: read-out: % of reversal of mechanical allodynia.
[6] abbreviates: read-out: Maximal inhibition (%).

T1 sequence (O75762 whole entry): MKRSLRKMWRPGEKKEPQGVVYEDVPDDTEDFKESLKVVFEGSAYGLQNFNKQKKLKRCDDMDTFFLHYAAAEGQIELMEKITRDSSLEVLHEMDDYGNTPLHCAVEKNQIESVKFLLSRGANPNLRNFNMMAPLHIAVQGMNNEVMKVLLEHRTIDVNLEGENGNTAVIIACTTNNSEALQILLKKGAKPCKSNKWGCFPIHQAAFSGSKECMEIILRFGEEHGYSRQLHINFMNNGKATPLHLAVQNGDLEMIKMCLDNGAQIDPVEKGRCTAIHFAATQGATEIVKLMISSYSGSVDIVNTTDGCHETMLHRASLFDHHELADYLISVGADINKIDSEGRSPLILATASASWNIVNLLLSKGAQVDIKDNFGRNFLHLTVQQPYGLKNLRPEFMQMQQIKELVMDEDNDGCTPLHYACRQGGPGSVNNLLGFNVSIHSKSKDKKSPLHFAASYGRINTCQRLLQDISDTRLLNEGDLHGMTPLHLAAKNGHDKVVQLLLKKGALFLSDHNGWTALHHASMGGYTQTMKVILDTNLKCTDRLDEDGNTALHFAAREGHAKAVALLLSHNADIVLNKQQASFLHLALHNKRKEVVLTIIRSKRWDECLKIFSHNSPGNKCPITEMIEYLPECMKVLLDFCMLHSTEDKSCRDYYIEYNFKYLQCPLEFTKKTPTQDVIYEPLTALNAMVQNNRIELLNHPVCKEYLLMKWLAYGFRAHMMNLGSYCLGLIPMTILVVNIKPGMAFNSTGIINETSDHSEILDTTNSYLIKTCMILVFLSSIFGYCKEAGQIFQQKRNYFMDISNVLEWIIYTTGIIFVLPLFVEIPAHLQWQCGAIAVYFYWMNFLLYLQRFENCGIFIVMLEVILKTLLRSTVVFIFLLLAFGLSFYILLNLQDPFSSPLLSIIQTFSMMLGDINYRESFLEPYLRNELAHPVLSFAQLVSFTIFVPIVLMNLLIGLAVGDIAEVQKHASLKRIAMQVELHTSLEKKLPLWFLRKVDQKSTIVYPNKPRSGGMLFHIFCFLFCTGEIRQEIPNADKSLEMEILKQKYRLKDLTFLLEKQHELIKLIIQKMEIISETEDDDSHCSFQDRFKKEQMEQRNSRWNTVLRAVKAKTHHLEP
T2 sequence (Q6RI86 whole entry): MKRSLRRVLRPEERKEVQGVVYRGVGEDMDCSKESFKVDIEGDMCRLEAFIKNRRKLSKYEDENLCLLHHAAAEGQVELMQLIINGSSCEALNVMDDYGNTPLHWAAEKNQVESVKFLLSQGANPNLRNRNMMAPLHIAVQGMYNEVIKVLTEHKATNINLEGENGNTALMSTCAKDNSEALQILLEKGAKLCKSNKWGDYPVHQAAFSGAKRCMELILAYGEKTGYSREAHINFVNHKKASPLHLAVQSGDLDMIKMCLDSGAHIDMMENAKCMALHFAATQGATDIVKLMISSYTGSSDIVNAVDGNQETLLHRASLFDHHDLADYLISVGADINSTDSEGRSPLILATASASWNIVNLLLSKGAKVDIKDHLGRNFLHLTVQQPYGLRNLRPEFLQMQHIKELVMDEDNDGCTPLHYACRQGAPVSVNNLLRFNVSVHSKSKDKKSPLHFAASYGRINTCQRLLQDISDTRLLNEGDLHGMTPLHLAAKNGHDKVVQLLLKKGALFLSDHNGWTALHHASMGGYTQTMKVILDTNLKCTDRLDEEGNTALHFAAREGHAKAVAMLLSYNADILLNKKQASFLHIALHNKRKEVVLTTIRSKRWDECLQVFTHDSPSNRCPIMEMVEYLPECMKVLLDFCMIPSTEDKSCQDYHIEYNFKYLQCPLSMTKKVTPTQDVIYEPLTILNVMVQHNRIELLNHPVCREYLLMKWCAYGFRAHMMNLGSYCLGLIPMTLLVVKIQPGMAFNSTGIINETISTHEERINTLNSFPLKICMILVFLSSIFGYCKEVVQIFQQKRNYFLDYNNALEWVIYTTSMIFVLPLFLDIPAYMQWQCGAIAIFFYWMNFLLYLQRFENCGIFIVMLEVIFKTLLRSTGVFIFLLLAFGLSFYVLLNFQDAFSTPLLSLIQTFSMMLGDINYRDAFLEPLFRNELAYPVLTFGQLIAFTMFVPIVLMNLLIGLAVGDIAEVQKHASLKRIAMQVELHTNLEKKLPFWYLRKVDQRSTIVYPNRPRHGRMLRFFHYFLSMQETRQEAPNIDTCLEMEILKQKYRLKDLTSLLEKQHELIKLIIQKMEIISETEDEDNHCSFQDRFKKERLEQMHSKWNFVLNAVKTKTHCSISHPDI

Compound `C=C(C(=O)NCc1ccnc(-c2ccc(C(F)(F)F)cc2)c1)N(CC)S(=O)(=O)c1ccc(F)cc1` [Example 1, 2-[ethyl-(4-fluorophenyl)sulfonyl-amino]-N-[[2-[4-(trifluoromethyl)phenyl]-4-pyridyl]methyl]prop-2-enamide] gave an inhibition at 10 µM in experiment [1] (10 μM compound against 1 μM PF-4840154, A549 cells) of 100%. Also, the IC50 in experiment [1] (against PF-4840154 (1 μM)-evoked [Ca2+]i mobilization, A549 cells) worked out at 15 nM; in experiment [2] it was 14 nM. The inhibition in vivo at 30 µmol/kg in experiment [3] (setting [5]) is 80%; in experiment [3] (setting [6]) it was 80%; in experiment [4] (setting [5]), 97%; in experiment [4] (setting [6]), 97%.

As usually defined, the inhibition is how much of the control response was suppressed. A low value points to little suppression. Broadly, the IC50 is the concentration needed to halve the response being measured.
